Tests used:
[1] = target: T1, Human TRPA1 expressing CHO cells (Homo sapiens, UniProt O75762); assay: 45Calcium uptake assay, inhibition of AITC induced calcium uptake (human); assay type: cell-based; settings: human TRPA1 CHO cells, AITC 30 μM; for inhibition at 1 µM: compound 1.0 μM, read-out: Percentage inhibition at 1.0 μM; for inhibition at 10 µM: compound 10.0 μM, read-out: Percentage inhibition at 10.0 μM; for IC50: read-out: Human IC50 value (Range)
T1 construct: expressed in transfected cells; host or cells: CHO cells (G-418 selection)
T1 sequence (O75762 whole entry): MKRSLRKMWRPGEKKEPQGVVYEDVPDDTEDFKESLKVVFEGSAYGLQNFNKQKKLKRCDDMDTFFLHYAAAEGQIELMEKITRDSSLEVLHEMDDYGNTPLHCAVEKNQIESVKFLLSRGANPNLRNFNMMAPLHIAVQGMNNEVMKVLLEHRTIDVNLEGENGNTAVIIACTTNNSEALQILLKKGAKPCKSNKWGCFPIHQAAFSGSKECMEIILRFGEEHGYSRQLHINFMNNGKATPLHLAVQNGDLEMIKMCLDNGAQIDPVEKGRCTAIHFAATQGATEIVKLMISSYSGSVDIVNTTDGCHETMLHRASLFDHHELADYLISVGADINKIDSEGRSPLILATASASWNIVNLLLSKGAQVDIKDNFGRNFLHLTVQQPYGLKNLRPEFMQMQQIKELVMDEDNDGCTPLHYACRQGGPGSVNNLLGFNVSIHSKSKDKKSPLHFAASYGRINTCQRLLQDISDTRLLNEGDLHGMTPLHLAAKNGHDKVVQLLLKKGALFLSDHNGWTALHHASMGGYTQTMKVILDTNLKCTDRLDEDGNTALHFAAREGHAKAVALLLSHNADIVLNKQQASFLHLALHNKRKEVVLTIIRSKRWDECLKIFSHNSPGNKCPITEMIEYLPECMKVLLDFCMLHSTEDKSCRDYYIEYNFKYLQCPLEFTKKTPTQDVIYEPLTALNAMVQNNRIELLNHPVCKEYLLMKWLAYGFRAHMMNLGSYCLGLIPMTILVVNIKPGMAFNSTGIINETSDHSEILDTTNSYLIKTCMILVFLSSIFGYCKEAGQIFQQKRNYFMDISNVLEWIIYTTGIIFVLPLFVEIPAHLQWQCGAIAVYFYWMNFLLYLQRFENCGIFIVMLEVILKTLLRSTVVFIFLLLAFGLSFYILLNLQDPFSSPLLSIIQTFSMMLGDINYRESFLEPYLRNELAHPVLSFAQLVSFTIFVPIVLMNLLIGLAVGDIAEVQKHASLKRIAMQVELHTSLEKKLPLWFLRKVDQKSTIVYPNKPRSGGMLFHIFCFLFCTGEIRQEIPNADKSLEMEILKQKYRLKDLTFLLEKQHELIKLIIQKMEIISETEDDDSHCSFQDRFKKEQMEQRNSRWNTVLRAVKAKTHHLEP
Description: (§1) Screening for TRPA1 Antagonist Using the ^45Calcium Uptake Assay:
(§2) The inhibition of TRPA1 receptor activation was measured as inhibition of allyl isothiocyanate (AITC) induced cellular uptake of radioactive calcium.
(§3) Test compounds were dissolved in 100% DMSO to prepare 10 mM stock and then diluted using plain medium with 0.1% BSA and 1.8 mM CaCl2 to get the desired concentration. The final concentration of DMSO in the reaction was 0.5% (v/v). […] Rat TRPA1 expressing CHO cells were grown in F-12 DMEM medium with 10% FBS, 1% penicillin-streptomycin solution, and 400 μg/ml of Zeocin. […] Cells were treated with the test compounds for 10 minutes followed by the addition of AITC at a final concentration of 30 μM (for human TRPA1) and/or 10 μM (for rat TRPA1) and 5 μCi/ml ^45Ca^+2 for 3 minutes. Cells were washed and lysed using a buffer containing 1% Triton X-100, 0.1% deoxycholate and 0.1% SDS. Radioactivity in the lysate was measured in a Packard TopCount after addition of liquid scintillant.
(§4) Concentration response curves were plotted as a % of maximal response obtained in the absence of test antagonist. IC50 values can be calculated from concentration response curve by nonlinear regression analysis using GraphPad PRISM software.

[2] = target: T2, Rat TRPA1 expressing CHO cells (Rattus norvegicus, UniProt Q6RI86); assay: 45Calcium uptake assay, inhibition of AITC induced calcium uptake (rat); assay type: cell-based; settings: rat TRPA1 CHO cells, AITC 10 μM; for inhibition at 1 µM: compound 1.0 μM, read-out: Percentage inhibition at 1.0 μM; for inhibition at 10 µM: compound 10.0 μM, read-out: Percentage inhibition at 10.0 μM; for IC50: read-out: Rat IC50 value (Range)
T2 construct: expressed in transfected cells; host or cells: CHO cells (Zeocin selection)
T2 sequence (Q6RI86 whole entry): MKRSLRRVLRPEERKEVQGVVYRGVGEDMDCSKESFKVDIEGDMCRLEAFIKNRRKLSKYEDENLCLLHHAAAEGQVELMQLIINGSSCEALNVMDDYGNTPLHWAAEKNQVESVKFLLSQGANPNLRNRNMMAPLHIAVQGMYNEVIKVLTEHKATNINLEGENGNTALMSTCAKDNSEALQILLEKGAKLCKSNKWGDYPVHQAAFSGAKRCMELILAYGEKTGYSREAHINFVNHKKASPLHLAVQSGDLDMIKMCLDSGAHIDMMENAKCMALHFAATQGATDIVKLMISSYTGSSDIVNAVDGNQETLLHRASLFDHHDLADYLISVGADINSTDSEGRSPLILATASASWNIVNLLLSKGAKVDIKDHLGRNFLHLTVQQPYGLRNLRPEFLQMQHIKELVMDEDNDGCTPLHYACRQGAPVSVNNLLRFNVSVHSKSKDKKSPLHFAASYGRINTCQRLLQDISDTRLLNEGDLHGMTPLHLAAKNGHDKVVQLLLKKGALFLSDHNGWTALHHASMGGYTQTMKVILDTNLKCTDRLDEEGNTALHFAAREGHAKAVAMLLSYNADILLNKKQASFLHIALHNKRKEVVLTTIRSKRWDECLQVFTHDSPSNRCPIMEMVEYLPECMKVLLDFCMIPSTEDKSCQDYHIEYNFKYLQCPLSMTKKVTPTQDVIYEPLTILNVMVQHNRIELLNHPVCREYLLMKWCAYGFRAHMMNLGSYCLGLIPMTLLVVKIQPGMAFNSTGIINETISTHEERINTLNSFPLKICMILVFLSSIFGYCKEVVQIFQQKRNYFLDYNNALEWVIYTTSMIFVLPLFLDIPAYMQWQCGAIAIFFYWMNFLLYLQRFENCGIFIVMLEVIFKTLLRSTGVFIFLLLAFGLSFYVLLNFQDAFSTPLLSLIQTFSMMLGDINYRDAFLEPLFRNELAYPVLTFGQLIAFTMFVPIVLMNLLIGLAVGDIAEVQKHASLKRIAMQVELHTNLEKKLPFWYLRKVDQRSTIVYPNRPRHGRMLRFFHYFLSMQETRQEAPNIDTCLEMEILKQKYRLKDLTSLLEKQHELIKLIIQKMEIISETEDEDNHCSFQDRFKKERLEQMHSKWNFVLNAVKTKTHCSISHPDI
Description: as §1, §2, §3, §4

inhibition at 1 µM [1] [%]	inhibition at 10 µM [1] [%]	IC50 [1] [nM]	inhibition at 1 µM [2] [%]	inhibition at 10 µM [2] [%]	IC50 [2] [nM]	SMILES
99.2	99.3	< 50	99.9	98.8	< 50	CCc1sc2c(c1CC(=O)Nc1nc(-c3ccc(F)c(C(F)(F)F)c3F)cs1)c(=O)n(C)c(=O)n2C [Example 32]
97.4	98.4	< 50	88.7	93.3	50 to 500	CCc1sc2c(c1CC(=O)Nc1nc(-c3cc(F)c(OCC(F)(F)F)c(F)c3)cs1)c(=O)n(C)c(=O)n2C [Example 34, N-{4-[3,5-Difluoro-4-(2,2,2-trifluoroethoxy)phenyl]-1,3-thiazol-2-yl}-2-(6-ethyl-1,3-dimethyl-2,4-dioxo-1,2,3,4-tetrahydrothieno[2,3-d]pyrimidin-5-yl)acetamide]
91.4	93.2	50 to 500	84.1	95.3	–	CC(C)Cc1ccc(-c2csc(NC(=O)Cc3scc4c3c(=O)n(C)c(=O)n4C)n2)cc1 [Example 44, 2-(1,3-Dimethyl-2,4-dioxo-1,2,3,4-tetrahydrothieno[3,4-d]pyrimidin-5-yl)-N-[4-(4-isobutylphenyl)-1,3-thiazol-2-yl]acetamide]

More lines, now with the values behind:

SMILES	inhibition at 1 µM [1] [%]	inhibition at 10 µM [1] [%]	IC50 [1] [nM]	inhibition at 1 µM [2] [%]	inhibition at 10 µM [2] [%]	IC50 [2] [nM]
CCc1sc2c(c1CC(=O)Nc1nc(-c3cc(F)c(OC(F)F)c(F)c3)cs1)c(=O)n(C)c(=O)n2C [Example 33, N-{4-[4-(Difluoromethoxy)-3,5-difluorophenyl]-1,3-thiazol-2-yl}-2-(6-ethyl-1,3-dimethyl-2,4-dioxo-1,2,3,4-tetrahydrothieno[2,3-d]pyrimidin-5-yl)acetamide]	96.9	96.9	< 50	96.5	97.3	50 to 500
CCCc1sc2c(c1CC(=O)Nc1nc(-c3ccc(C(F)(F)F)c(F)c3)cs1)c(=O)n(C)c(=O)n2C [Example 35, N-{4-[3-Fluoro-4-(trifluoromethyl)phenyl]-1,3-thiazol-2-yl}-2-(1,3-dimethyl-2,4-dioxo-6-propyl-1,2,3,4-tetrahydrothieno[2,3-d]pyrimidin-5-yl) acetamide]	99.1	100	< 50	90.1	98.3	50 to 500
CCCc1sc2c(c1CC(=O)Nc1nc(-c3cc(F)c(OC(F)F)c(F)c3)cs1)c(=O)n(C)c(=O)n2C [Example 36, N-{4-[4-Difluoromethoxy-3,5-difluorophenyl]-1,3-thiazol-2-yl}-2-(1,3-dimethyl-2,4-dioxo-6-propyl-1,2,3,4-tetrahydrothieno[2,3-d]pyrimidin-5-yl) acetamide]	98.9	99.8	< 50	99.1	99.5	50 to 500
CC(C)c1sc2c(c1CC(=O)Nc1nc(-c3ccc(C(F)(F)F)c(F)c3)cs1)c(=O)n(C)c(=O)n2C [Example 37, N-{4-[3-Fluoro-4-(trifluoromethyl)phenyl]-1,3-thiazol-2-yl}-2-(6-isopropyl-1,3-dimethyl-2,4-dioxo-1,2,3,4-tetrahydrothieno[2,3-d]pyrimidin-5-yl)acetamide]	99	97.7	< 50	94.9	97	< 50
Cn1c(=O)c2c(CC(=O)Nc3nc(-c4ccc(Cl)cc4)cs3)scc2n(C)c1=O [Example 45, N-[4-(4-Chlorophenyl)-1,3-thiazol-2-yl]-2-(1,3-dimethyl-2,4-dioxo-1,2,3,4-tetrahydrothieno[3,4-d]pyrimidin-5-yl)acetamide]	94	98.9	50 to 500	66.2	94.8	–
Cn1c(=O)c2c(CC(=O)Nc3nc(-c4cccc(C(F)(F)F)c4)cs3)scc2n(C)c1=O [Example 46]	93.9	98.5	< 50	93.2	99.7	50 to 500

Source: US9474758B2, “Thienopyrimidinedione derivatives as TRPA1 modulators” (Glenmark Pharmaceuticals S.A., priority 2009, dated 2016)
